The values that follow come from US20230017045A1, “PYRIDINE AND PYRIMIDINE CARBOXYLATE HERBICIDES AND METHODS OF USE THEREOF” (Dow AgroSciences LLC, priority 2017, published 2023).

The test relates to test plant species. The test is described as follows: Post-emergent herbicidal activity test (greenhouse, foliar spray, visual growth reduction). The format is in vivo. As to conditions: post-emergence, 336 h, 140 g ai/ha. In outline: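 Visual scoring 14 d after treatment (0 = no injury, 100 = complete control) against nontreated and solvent-blank plants gave percent growth reduction. Foliar application used a track sprayer delivering 187 L/ha to seedlings at first or second true leaf stage, grown at 23–29 °C day, ~15 h photoperiod.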

Where [1] appears, read: ECHCG: barnyardgrass (Echinochloa crus-galli), 14 days after application, read-out: Visual Growth Reduction (%) 14 Days After Application, ECHCG.
The mark [2] stands for this setting: IPOHE: ivy-leaf morning glory (Ipomoea hederacea), 14 days after application, read-out: Visual Growth Reduction (%) 14 Days After Application, IPOHE.
Setting [3] is: KCHSC: kochia (Bassia scoparia), 14 days after application, read-out: Visual Growth Reduction (%) 14 Days After Application, KCHSC.
Setting [4] is: ORYSA: rice (Oryza sativa), 14 days after application, read-out: Visual Growth Reduction (%) 14 Days After Application, ORYSA.
The mark [5] stands for this setting: SETFA: giant foxtail (Setaria faberi), 14 days after application, read-out: Visual Growth Reduction (%) 14 Days After Application, SETFA.
[6] abbreviates: SORVU: grain sorghum (Sorghum vulgare), 14 days after application, read-out: Visual Growth Reduction (%) 14 Days After Application, SORVU.
Setting [7] is: STEME: common chickweed (Stellaria media), 14 days after application, read-out: Visual Growth Reduction (%) 14 Days After Application, STEME.
Setting [8] is: TRZAS: wheat, spring (Triticum aestivum), 14 days after application, read-out: Visual Growth Reduction (%) 14 Days After Application, TRZAS.
Setting [9] is: blackgrass (Alopecurus myosuroides), 14 Days After Application, read-out: Visual Growth Reduction (%) ALOMY.
[10] abbreviates: canada thistle (Cirsium arvense), 14 Days After Application, read-out: Visual Growth Reduction (%) CIRAR.
The mark [11] stands for this setting: crabgrass (Digitaria sanguinalis), 14 Days After Application, read-out: Visual Growth Reduction (%) DIGSA.
[12] abbreviates: lambsquarters (Chenopodium album), 14 Days After Application, read-out: Visual Growth Reduction (%) CHEAL.
The mark [13] stands for this setting: redroot pigweed (Amaranthus retroflexus), 14 Days After Application, read-out: Visual Growth Reduction (%) AMARE.
The mark [14] stands for this setting: wild oat (Avena fatua), 14 Days After Application, read-out: Visual Growth Reduction (%) AVEFA.
Where [15] appears, read: yellow nutsedge (Cyperus esculentus), 14 Days After Application, read-out: Visual Growth Reduction (%) CYPES.

SMILES strings stand for the structures. Like-named read-outs stand apart in the source and are kept apart here.

Take `C=Cc1cc(-c2nc(C(=O)OC)c(Cl)cc2F)c(OC)c2c1OC(F)(F)O2` [F372, Methyl 3-chloro-6-(2,2-difluoro-4-methoxy-7-vinylbenzo[d][1,3]dioxol-5-yl)-5-fluoropicolinate]: the pest or weed control at 140 g/ha lay within 0 to 29% under setting [1]; 95 to 100% under setting [2]; 0 to 29% under setting [3]; 0 to 29% under setting [4]; 0 to 29% under setting [5]; 30 to 44% under setting [6]. In addition, the pest or weed control at 140 g/ha is 0 to 29% under setting [7]; 0 to 29% under setting [8]; 0 to 29% under setting [9]; 0 to 29% under setting [10]; 0 to 29% under setting [11]; 0 to 29% under setting [12]. The pest or weed control at 140 g/ha is 45 to 59% under setting [13], 0 to 29% under setting [14] and 0 to 29% under setting [15].

For the compound `COC(=O)c1nc(-c2ccc(C(F)(F)F)cc2Cl)c(F)cc1F` [F373, Methyl 6-(2-chloro-4-(trifluoromethyl)phenyl)-3,5-difluoropicolinate], the pest or weed control at 140 g/ha runs as follows: under setting [1], 75 to 84%; under setting [2], 95 to 100%; under setting [3], 75 to 84%; under setting [4], 0 to 29%; under setting [5], 75 to 84%; under setting [6], 95 to 100%. Moreover, the pest or weed control at 140 g/ha under setting [7] was 30 to 44%; the pest or weed control at 140 g/ha under setting [8] lay within 30 to 44%; the pest or weed control at 140 g/ha under setting [9] is 0 to 29%; the pest or weed control at 140 g/ha under setting [10] lay in the range of 95 to 100%; the pest or weed control at 140 g/ha under setting [11] fell in the range of 95 to 100%; the pest or weed control at 140 g/ha under setting [12] was in the range of 95 to 100%. In addition, the pest or weed control at 140 g/ha by setting is: under setting [13], 95 to 100%; under setting [14], 45 to 59%; under setting [15], 0 to 29%.

Regarding `COC(=O)c1nc(-c2ccc(C(F)(F)F)cc2Br)c(F)cc1F` [F374, Methyl 6-(2-bromo-4-(trifluoromethyl)phenyl)-3,5-difluoropicolinate], the pest or weed control at 140 g/ha was in the range of 75 to 84% under setting [1]; 95 to 100% under setting [2]; 75 to 84% under setting [3]; 45 to 59% under setting [4]; 85 to 94% under setting [5]; 95 to 100% under setting [6]. Moreover, the pest or weed control at 140 g/ha is, setting by setting: under setting [7], 0 to 29%; under setting [8], 60 to 74%; under setting [9], 45 to 59%; under setting [10], 95 to 100%; under setting [11], 85 to 94%; under setting [12], 95 to 100%. Also, the pest or weed control at 140 g/ha fell in the range of 95 to 100% under setting [13], 45 to 59% under setting [14] and 0 to 29% under setting [15].

On to `COC(=O)c1nc(-c2ccc(C(F)(F)F)cc2F)c(F)cc1F` [F375, Methyl 3,5-difluoro-6-(2-fluoro-4-(trifluoromethyl)phenyl)picolinate], for which the pest or weed control at 140 g/ha by setting is: under setting [1], 85 to 94%; under setting [2], 95 to 100%; under setting [3], 60 to 74%; under setting [4], 0 to 29%; under setting [5], 85 to 94%; under setting [6], 85 to 94%. Also, the pest or weed control at 140 g/ha is, setting by setting: under setting [7], 0 to 29%; under setting [8], 75 to 84%; under setting [9], 45 to 59%; under setting [10], 85 to 94%; under setting [11], 85 to 94%; under setting [12], 85 to 94%. For the same compound, the pest or weed control at 140 g/ha under setting [13] lay within 95 to 100%, the pest or weed control at 140 g/ha under setting [14] lay within 60 to 74% and the pest or weed control at 140 g/ha under setting [15] lay in the range of 0 to 29%.

On to `COC(=O)c1nc(-c2ccc(C(F)(F)F)cc2C)c(F)cc1F` [F376, Methyl 3,5-difluoro-6-(2-methyl-4-(trifluoromethyl)phenyl)picolinate], for which the pest or weed control at 140 g/ha lay within 0 to 29% under setting [1]; 95 to 100% under setting [2]; 45 to 59% under setting [3]; 0 to 29% under setting [4]; 60 to 74% under setting [5]; 85 to 94% under setting [6]. For the same compound, the pest or weed control at 140 g/ha fell in the range of 0 to 29% under setting [7]; 0 to 29% under setting [8]; 0 to 29% under setting [9]; 60 to 74% under setting [10]; 60 to 74% under setting [11]; 85 to 94% under setting [12]. Further, the pest or weed control at 140 g/ha was in the range of 95 to 100% under setting [13], 0 to 29% under setting [14] and 0 to 29% under setting [15].

With `COC(=O)c1nc(-c2ccc(C(F)(F)F)cc2OC)c(F)cc1F` [F377, Methyl 3,5-difluoro-6-(2-methoxy-4-(trifluoromethyl)phenyl)picolinate], the pest or weed control at 140 g/ha is, setting by setting: under setting [1], 60 to 74%; under setting [2], 95 to 100%; under setting [3], 60 to 74%; under setting [4], 0 to 29%; under setting [5], 75 to 84%; under setting [6], 85 to 94%. Besides, the pest or weed control at 140 g/ha is, setting by setting: under setting [7], 0 to 29%; under setting [8], 0 to 29%; under setting [9], 0 to 29%; under setting [10], 75 to 84%; under setting [11], 60 to 74%; under setting [12], 85 to 94%. In addition, the pest or weed control at 140 g/ha under setting [13] fell in the range of 95 to 100%, the pest or weed control at 140 g/ha under setting [14] fell in the range of 30 to 44% and the pest or weed control at 140 g/ha under setting [15] lay within 60 to 74%.

On to `COC(=O)c1nc(-c2ccc(C#N)cc2F)c(F)cc1Cl` [F378, Methyl 3-chloro-6-(4-cyano-2-fluorophenyl)-5-fluoropicolinate], for which the pest or weed control at 140 g/ha reads like this: under setting [1], 0 to 29%; under setting [2], 95 to 100%; under setting [3], 45 to 59%; under setting [4], 0 to 29%; under setting [5], 60 to 74%; under setting [6], 75 to 84%. Besides, the pest or weed control at 140 g/ha was in the range of 0 to 29% under setting [7]; 0 to 29% under setting [8]; 0 to 29% under setting [9]; 45 to 59% under setting [10]; 60 to 74% under setting [11]; 75 to 84% under setting [12]. Moreover, the pest or weed control at 140 g/ha under setting [13] was in the range of 45 to 59%, the pest or weed control at 140 g/ha under setting [14] lay within 0 to 29% and the pest or weed control at 140 g/ha under setting [15] lay within 0 to 29%.

`O=C(OCc1ccccc1C(F)(F)F)c1nc(-c2ccc(C(F)(F)F)cc2Cl)ccc1Cl` [F380, 2-(Trifluoromethyl) benzyl 3-chloro-6-(2-chloro-4-(trifluoromethyl)phenyl)picolinate]: the pest or weed control at 140 g/ha is, setting by setting: under setting [1], 75 to 84%; under setting [2], 95 to 100%; under setting [3], 75 to 84%; under setting [4], 0 to 29%; under setting [5], 95 to 100%; under setting [6], 95 to 100%. The pest or weed control at 140 g/ha was 0 to 29% under setting [7]; 60 to 74% under setting [8]; 45 to 59% under setting [9]; 85 to 94% under setting [10]; 95 to 100% under setting [11]; 95 to 100% under setting [12]. Also, the pest or weed control at 140 g/ha runs as follows: under setting [13], 95 to 100%; under setting [14], 60 to 74%; under setting [15], 0 to 29%.
